In ChEMBL document CHEMBL1201862, “PubChem BioAssay data set” (2004):
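Interpolation was linear, between the two tested concentrations surrounding the appropriate level; five concentrations were tested over 48 hours in 96-well plates. Abbreviation: GI50, concentration required for 50% inhibition of growth.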 Active and inactive are the calls of the source. Rule as the data show it: active = GI50 up to about 1.1 µM and inactive = higher.

Tests used:
Assay in all cases: DTP human tumour cell line panel, 48 h
LXFL 529 = tested on: LXFL 529
DMS-273 = tested on: DMS-273
HOP-18 = tested on: HOP-18
KM-20L2 = tested on: KM-20L2
M19-MEL = tested on: M19-MEL
DLD-1 = tested on: DLD-1
XF498 = tested on: XF498
SNB-78 = tested on: SNB-78
RXF 631 = tested on: RXF 631

Measured: GI50

Oc1ccc2occ3c2c1CCC3
inactive: LXFL 529 > 100 µM | DMS-273 > 100 µM | HOP-18 > 100 µM | KM-20L2 > 100 µM | M19-MEL > 100 µM | DLD-1 > 100 µM | XF498 67 µM | SNB-78 > 100 µM | RXF 631 > 100 µM

NC(=O)c1c([N+](=O)[O-])cc(C(F)(F)F)cc1[N+](=O)[O-]
inactive: LXFL 529 > 100 µM | DMS-273 35.1 µM | HOP-18 > 100 µM | KM-20L2 33.3 µM | DLD-1 > 100 µM | XF498 > 100 µM | SNB-78 > 100 µM

COc1ccc(/C(=C/n2ccnc2)C(=O)c2ccc(OC)c(OC)c2)cc1
inactive: LXFL 529 > 100 µM | DMS-273 > 100 µM | KM-20L2 > 100 µM | M19-MEL > 100 µM | DLD-1 > 100 µM | XF498 > 100 µM

Cc1ccc(N2C(=O)C3C=CC(n4[nH]c(=O)n(Cc5ccccc5)c4=O)CC3C2=O)cc1 (stereo not given)
inactive: LXFL 529 > 100 µM | DMS-273 > 100 µM | HOP-18 > 100 µM | KM-20L2 > 100 µM | M19-MEL > 100 µM | DLD-1 > 100 µM | XF498 > 100 µM | SNB-78 > 100 µM

C=CCN1/C(=C2\SC(=S)N(c3ccc(C)cc3)C2=O)Sc2c1ncn(C)c2=O
inactive: LXFL 529 59.7 µM | DMS-273 > 100 µM | KM-20L2 > 100 µM | M19-MEL > 100 µM | DLD-1 > 100 µM | XF498 73.5 µM | SNB-78 90.6 µM

COC(=O)C(C(=O)C(=O)Nc1ccccc1C(C)=O)c1nc2ccc(Cl)cc2nc1O (stereo not given)
inactive: LXFL 529 > 100 µM | HOP-18 53.5 µM | KM-20L2 > 100 µM | M19-MEL > 100 µM | DLD-1 > 100 µM | SNB-78 > 100 µM | RXF 631 > 100 µM

O=C1C(c2ccccc2)=C(c2ccccc2)C(c2ccc(Sc3ccc(C4=C(c5ccccc5)C(=O)C(c5ccccc5)=C4c4ccccc4)cc3)cc2)=C1c1ccccc1
inactive: DMS-273 > 100 µM | KM-20L2 > 100 µM | M19-MEL > 100 µM | DLD-1 > 100 µM | XF498 > 100 µM | SNB-78 87.5 µM | RXF 631 > 100 µM

Oc1nc(-c2ccccc2)cc(-c2ccccc2O)n1
inactive: LXFL 529 50.4 µM | DMS-273 > 100 µM | HOP-18 > 100 µM | KM-20L2 67.5 µM | M19-MEL > 100 µM | DLD-1 > 100 µM | XF498 65 µM | SNB-78 > 100 µM

CCCN(CCCC(NC(C)=O)C(=O)NCc1ccccc1)C(=O)N(CCCl)N=O (stereo not given)
inactive: LXFL 529 18 µM | DMS-273 4.52 µM | HOP-18 22.5 µM | KM-20L2 15.7 µM | M19-MEL 12.2 µM | DLD-1 14.5 µM | XF498 9.89 µM | SNB-78 15.4 µM | RXF 631 17.4 µM

O=c1[nH]c2ccccc2cc1C(Cl)=C(Cl)Cl
inactive: LXFL 529 > 100 µM | DMS-273 > 100 µM | HOP-18 > 100 µM | KM-20L2 > 100 µM | M19-MEL > 100 µM | DLD-1 > 100 µM | XF498 > 100 µM | SNB-78 > 100 µM

C(CCC[Te][Te]CCCCCCOC1CCCCO1)CCOC1CCCCO1 (stereo not given)
inactive: LXFL 529 9.02 µM | HOP-18 19.3 µM | KM-20L2 14.7 µM | DLD-1 15.7 µM | XF498 10.2 µM | SNB-78 17.1 µM

CCOC(=O)C1=C(Nc2ccc(Cl)c(Cl)c2)OC/C1=N\NS(=O)(=O)c1ccc(C)cc1
inactive: LXFL 529 46.9 µM | HOP-18 27.5 µM | KM-20L2 31.4 µM | M19-MEL 94.6 µM | DLD-1 39.8 µM | XF498 94 µM | SNB-78 > 100 µM | RXF 631 29.6 µM
